In the assay the target is T1, NS3-NS4 protease (full-length NS3/NS4A-2) (Hepatitis C virus genotype 1a, UniProt P27958).
T1 construct: Recombinant E. coli or Baculovirus full-length NS3 was diluted to 3.33 μM with assay buffer; made in house; host or cells: E. coli or baculovirus (insect cells)
The assay can be described thus: NS3-NS4 protease assay / NS3 inhibition assay (RETS1 substrate, fluorescence kinetic read). In kind it is biochemical. The protocol: NS3 complex formation with NS4A-2.
The appropriate amount of NS4A-2 to 8.3 mM in assay buffer was added to equal the volume of NS3 in step 2.1.1 (conversion factor—3.8 mg/272 μL assay buffer). The material was transferred to an eppendorf tube and place in water bath in 4° C. refrigerator.
After equilibration to 4° C., equal volumes of NS3 and NS4A-2 solutions were combined in an eppendorf tube, mix gently with a manual pipettor, and incubate mixture for 15 minutes in the 4° C. water bath.
After 15 minutes at 4° C., the NS3/NS4A-2 eppendorf tube was removed and place it in a room temperature water bath for 10 minutes. NS3/NS4A-2 was alliquoted at appropriate volumes and store at −80° C. (E. coli NS3 run at 2 nM in assay, aliquot at 25 μL. BV NS3 run at 3 nM in assay, aliquot at 30 μL).
Sample compounds were dissolved to 10 mM in DMSO then diluted to 2.5 mM (1:4) in DMSO.
The E. coli. […] Using the manual multichannel pipettor, careful not to introduce bubbles into the plate, add 50 μL assay buffer to wells A01-H01 of a black Costar 96-well polypropylene storage plate.
Using the manual multichannel pipettor, careful not to introduce bubbles into the plate, add 50 μL of diluted NS3/NS4A-2 from step 2.2.6 to wells A02-H12 of plate in step 2.2.7. Using the manual multichannel pipettor, careful not to introduce bubbles into the plate, transfer 25 μL of the wells in drug dilution plate in step 2.2.5 to corresponding wells in assay plate in step 2.2.8. Change tips on multichannel pipettor for each row of compounds transferred. Using the manual multichannel pipettor, careful not to introduce bubbles into the plate, mix the wells from the assay plate in step 2.2.9 by aspirating and dispensing 35 μL of the 75 μL in each well five times. Change tips on multichannel pipettor for each row of wells mixed. Cover plate with a polystyrene plate lid and pre-incubate the plate from step 2.2.10 containing NS3 protease and sample compounds 10 minutes at room temperature. While plate from step 2.2.11 is pre-incubating, dilute RETS1 substrate in a 15 mL polypropylene centrifuge tube.
After the plate in step is done pre-incubating, and using the manual multichannel, add 25 μL of substrate to all wells on the plate. Quickly mix the plate as in step 2.2.10, mixing 65 μL of the 100 μL in the wells.
Read the plate in kinetic mode on the Molecular Devices SpectraMax
IC50s are determined using a four parameter curve fit equation, and converted to Ki's using the following Km's:
where Ki=IC50/(1+[S]/Km))

Read-outs that look alike come from different tables or passages of the source. Bounds are passed on as bounds.

What is called IC50 is the concentration that inhibits the measured activity by half.

T1 sequence (P27958 1027-1657): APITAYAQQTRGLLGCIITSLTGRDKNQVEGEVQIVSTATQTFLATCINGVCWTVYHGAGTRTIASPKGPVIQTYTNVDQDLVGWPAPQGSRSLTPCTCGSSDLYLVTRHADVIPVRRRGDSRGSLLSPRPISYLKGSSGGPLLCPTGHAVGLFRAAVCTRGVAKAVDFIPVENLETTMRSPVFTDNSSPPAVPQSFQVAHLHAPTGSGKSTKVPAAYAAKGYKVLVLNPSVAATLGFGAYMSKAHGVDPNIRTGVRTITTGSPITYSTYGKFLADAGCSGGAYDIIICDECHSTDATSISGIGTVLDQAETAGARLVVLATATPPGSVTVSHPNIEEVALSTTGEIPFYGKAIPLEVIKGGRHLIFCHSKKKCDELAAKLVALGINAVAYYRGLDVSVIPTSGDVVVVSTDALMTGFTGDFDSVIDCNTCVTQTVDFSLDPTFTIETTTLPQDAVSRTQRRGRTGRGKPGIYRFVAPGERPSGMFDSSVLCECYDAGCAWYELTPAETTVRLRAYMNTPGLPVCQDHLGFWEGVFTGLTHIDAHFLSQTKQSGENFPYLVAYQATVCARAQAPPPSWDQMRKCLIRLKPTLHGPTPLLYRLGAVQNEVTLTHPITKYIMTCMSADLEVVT

Compound `O=C(N[C@H]1CCCCC/C=C\[C@@H]2C[C@@]2(C(=O)NS(=O)(=O)C2CC2)NC(=O)[C@@H]2C[C@@H](OC(=O)N3Cc4cccc(F)c4C3)CN2C1=O)C(O)C(F)(F)F` (single isomer, unassigned) [Compound 247] returned an IC50 of less than 0.1 µM. For `CC(C)OC(=O)N[C@H]1CCCCC/C=C\[C@@H]2C[C@@]2(C(=O)NS(=O)(=O)Nc2ccc(Cl)cc2)NC(=O)[C@@H]2CCCN2C1=O` [Compound 418], under “read-out: NS3-NS4 IC50”, the IC50 was greater than 10 µM. On the same count and under the same terms, for `CCOC(=O)[C@@]12C[C@H]1/C=C\CCCCC[C@H](NC(=O)OC(C)(C)C)C(=O)N1Cc3ccc(Oc4cccc(Cl)c4)cc3CC1C(=O)N2` (stereo partly shown) [Compound 2006] the value was less than 1 µM; for `CC(C)(C)OC(=O)N[C@H]1CCCCC/C=C\[C@@H]2C[C@@]2(C(=O)NS(=O)(=O)c2ccccc2)NC(=O)[C@@H]2CCCN2C1=O` [Compound 2101], less than 10 µM. The same measure, in the same setting: in the case of `CC(C)(C)OC(=O)N[C@H]1CCCCC/C=C\[C@@H]2C[C@@]2(C(=O)NS(=O)(=O)c2ccc([N+](=O)[O-])cc2)NC(=O)[C@@H]2CCCN2C1=O` [Compound 2102] it was less than 10 µM; in that of `CC(C)(C)OC(=O)N[C@H]1CCCCC/C=C\[C@@H]2C[C@@]2(C(=O)NS(C)(=O)=O)NC(=O)[C@@H]2CCCN2C1=O` [Compound 2103], less than 1 µM.

As for `CC(C)S(=O)(=O)NC(=O)[C@@]12C[C@H]1/C=C\CCCCC[C@H](NC(=O)OC(C)(C)C)C(=O)N1CCC[C@H]1C(=O)N2` [Compound 2104], the IC50 (read-out: NS3-NS4 IC50) is less than 10 µM.

`CCCS(=O)(=O)NC(=O)[C@@]12C[C@H]1/C=C\CCCCC[C@H](NC(=O)OC(C)(C)C)C(=O)N1CCC[C@H]1C(=O)N2` [Compound 2105]: under “read-out: NS3-NS4 IC50”, the IC50 is less than 1 µM.

For `CCCCS(=O)(=O)NC(=O)[C@@]12C[C@H]1/C=C\CCCCC[C@H](NC(=O)OC(C)(C)C)C(=O)N1CCC[C@H]1C(=O)N2` [Compound 2106], the IC50 (read-out: NS3-NS4 IC50) was less than 0.1 µM.

Regarding `CC(C)(C)OC(=O)NC1CCCCCC=CC2CC2(C(=O)NS(=O)(=O)C(F)(F)F)NC(=O)C2CCCN2C1=O` (stereo not shown) [Compound 2107], for the setting “read-out: NS3-NS4 IC50”, the IC50 was less than 1 µM.

Take `CC(C)(C)OC(=O)NC1CCCCCC=CC2CC2(C(=O)NS(=O)(=O)c2cc(Cl)cc(Cl)c2)NC(=O)C2CCCN2C1=O` (stereo not shown) [Compound 2108]: for the setting “read-out: NS3-NS4 IC50”, the IC50 was less than 10 µM. With `CC(C)(C)OC(=O)NC1CCCCCC=CC2CC2(C(=O)NS(=O)(=O)c2ccccc2Cl)NC(=O)C2CCCN2C1=O` (stereo not shown) [Compound 2109], the IC50 (read-out: NS3-NS4 IC50) is less than 10 µM. In the case of `CC(C)(C)OC(=O)N[C@H]1CCCCC/C=C\[C@@H]2C[C@@]2(C(=O)NS(=O)(=O)c2cnccc2Cl)NC(=O)[C@@H]2CCCN2C1=O` [Compound 2128], the IC50 (read-out: NS3-NS4 IC50) was less than 10 µM. Take `CC(C)(C)OC(=O)N[C@H]1CCCCC/C=C\[C@@H]2C[C@@]2(C(=O)NS(=O)(=O)c2ccc(Cl)cc2)NC(=O)[C@@H]2CCCN2C1=O` [Compound 2129]: where the note is “read-out: NS3-NS4 IC50”, the IC50 was less than 10 µM. Still for that read-out and setting: in the case of `Cc1ccc(CC(=O)N[C@H]2CCCCC/C=C\[C@@H]3C[C@@]3(C(=O)NS(=O)(=O)C3CC3)NC(=O)C3CCCN3C2=O)cc1` (stereo partly shown) [Compound 2140] it was greater than 10 µM. On the same count and under the same terms, for `CO[C@@H]1C[C@H]2C(=O)N[C@]3(C(=O)NS(=O)(=O)C4CC4)C[C@H]3/C=C\CCCCC[C@H](NC(=O)OC(C)(C)C)C(=O)N2C1` [Compound 2146, 1S,4R,6S,14S,18R)-tert-Butyl 4-cyclopropylsulfonylaminocarbonyl-2,15-dioxo-3,16-diaza-18-methoxy-tricyclo[14.3.0.0^4,6]nonadec-7-ene-14-yl carbamate] the value was greater than 10 µM. Still for that read-out and setting: in the case of `CC(C)(C)OC(=O)N[C@H]1CCCCC/C=C\[C@@H]2C[C@@]2(C(=O)NS(=O)(=O)c2cccc3ccccc23)NC(=O)[C@@H]2CCCN2C1=O` [Compound 2148] it was less than 10 µM. For `CC(C)(C)OC(=O)N[C@H]1CCCCC/C=C\[C@@H]2C[C@@]2(C(=O)NS(=O)(=O)c2ccc(Cl)cc2Cl)NC(=O)[C@@H]2CCCN2C1=O` [Compound 2153], the IC50 (read-out: NS3-NS4 IC50) was less than 10 µM. Same read-out and setting: for `CC(C)N(C(C)C)S(=O)(=O)NC(=O)[C@@]12C[C@H]1/C=C\CCCCC[C@H](NC(=O)OC(C)(C)C)C(=O)N1CCC[C@H]1C(=O)N2` [Compound 2209] the value was less than 1 µM.
